# Laboratory results from ChEMBL document CHEMBL5252612, “A novel selective estrogen receptor degrader induces cell cycle arrest in breast cancer via ERα degradation and the autophagy-lysosome pathway” (Bioorg Med Chem, 2023).
# Activity calls are given as the source filed them. The rule behind the calls is not given here.
# Tests used:
# [1] = Anticancer activity against ER-alpha positive human LCC2 cells assessed as reduction in cell viability measured after 48 hrs by CCK8 assay; type: functional, cell-based; settings: lcc2
# [2] = tested on: T47D; assay: Induction of autophagy in human T47D cells assessed as increase in autophagosome number by measuring LC3 puncta formation by immunofluorescence assay; type: functional, cell-based
# [3] = tested on: T47D; assay: Induction of autophagy in human T47D cells assessed as increase in LC3 protein expression by western blot analysis; type: functional, cell-based
# [4] = tested on: T47D; assay: Induction of autophagy in human T47D cells assessed as increase in lysosome number by LysoTracker dye based confocal microscopy; type: functional, cell-based
# [5] = tested on: T47D; assay: Induction of autophagy in human T47D cells assessed as downregulation of MYC protein expression incubated for 24 hrs by western blot analysis; type: functional, cell-based; settings: dose 1-5 µM
# [6] = tested on: MCF7; assay: Antitumor activity against human MCF7 cells xenografted in BALB/c nude mouse assessed as reduction in tumor volume at 4 mg/kg, ip administered every other day by caliper analysis; type: functional, organism-based
SMILES,IC50 [1],Activity [2],Activity [3],Activity [4],Activity [5],Activity [6]
CC/C(=C(\c1ccccc1)c1ccc(OCCN(C)C)cc1)c1ccccc1 [TAMOXIFEN],Not Active,Active,Active,Active,–,–
CO[C@H]1C[C@@H]2CC[C@@H](C)[C@@](O)(O2)C(=O)C(=O)N2CCCC[C@H]2C(=O)O[C@H]([C@H](C)C[C@@H]2CC[C@@H](O)[C@H](OC)C2)CC(=O)[C@H](C)/C=C(\C)[C@@H](O)[C@@H](OC)C(=O)[C@H](C)C[C@H](C)/C=C/C=C/C=C/1C,–,–,–,–,Dose-Dependent Effect,–
C[C@]12CC[C@@H]3c4ccc(O)cc4C[C@@H](CCCCCCCCC[S+]([O-])CCCC(F)(F)C(F)(F)F)[C@H]3[C@@H]1CC[C@@H]2O (some centres undefined),–,Active,Active,Active,–,Active
